Laboratory results reported in ChEMBL document CHEMBL1139874, “New diphenylacetylenes as probes for positron emission tomographic imaging of amyloid plaques” (J Med Chem, 2007).

Columns and labels:
[1] = molecular target: Amyloid-beta precursor protein (Homo sapiens, UniProt P05067); assay: Displacement of [125I]IMPY from human beta amyloid plaque in brain homogenates; type: tissue-based
[2] = tested on: Kidney; assay: Biodistribution in ICR mouse kidney at 5 to 10 uCi, iv after 30 mins; type: ADME, organism-based; conditions: in vivo, 0.5 h
[3] = tested on: Zone of skin; assay: Biodistribution in ICR mouse skin at 5 to 10 uCi, iv after 2 hrs; type: ADME, organism-based; conditions: in vivo
[4] = tested on: Heart; assay: Biodistribution in ICR mouse heart at 5 to 10 uCi, iv after 2 mins; type: ADME, organism-based; conditions: in vivo
[5] = tested on: Spleen; assay: Biodistribution in ICR mouse spleen at 5 to 10 uCi, iv after 2 mins; type: ADME, organism-based; conditions: in vivo
[6] = tested on: Kidney; assay: Biodistribution in ICR mouse kidney at 5 to 10 uCi, iv after 1 hr; type: ADME, organism-based; conditions: in vivo
[7] = tested on: Blood; assay: Biodistribution in ICR mouse blood at 5 to 10 uCi, iv after 2 hrs; type: ADME, organism-based; conditions: in vivo
[8] = Partition coefficient, log P at pH 7.4; type: physicochemical; conditions: octanol/water
[9] = tested on: Muscle tissue; assay: Biodistribution in ICR mouse muscle at 5 to 10 uCi, iv after 2 hrs; type: ADME, organism-based; conditions: in vivo
[10] = tested on: Zone of skin; assay: Biodistribution in ICR mouse skin at 5 to 10 uCi, iv after 30 mins; type: ADME, organism-based; conditions: in vivo, 0.5 h
[11] = tested on: Brain; assay: Biodistribution in ICR mouse brain at 5 to 10 uCi, iv after 2 hrs; type: ADME, organism-based; conditions: in vivo
[12] = tested on: Liver; assay: Biodistribution in ICR mouse liver at 5 to 10 uCi, iv after 30 mins; type: ADME, organism-based; conditions: in vivo, 0.5 h
[13] = tested on: Muscle tissue; assay: Biodistribution in ICR mouse muscle at 5 to 10 uCi, iv after 2 mins; type: ADME, organism-based; conditions: in vivo
[14] = tested on: Spleen; assay: Biodistribution in ICR mouse spleen at 5 to 10 uCi, iv after 30 mins; type: ADME, organism-based; conditions: in vivo, 0.5 h
[15] = tested on: Blood; assay: Biodistribution in ICR mouse blood at 5 to 10 uCi, iv after 2 mins; type: ADME, organism-based; conditions: in vivo
[16] = tested on: Heart; assay: Biodistribution in ICR mouse heart at 5 to 10 uCi, iv after 2 hrs; type: ADME, organism-based; conditions: in vivo
[17] = tested on: Spleen; assay: Biodistribution in ICR mouse spleen at 5 to 10 uCi, iv after 2 hrs; type: ADME, organism-based; conditions: in vivo
[18] = tested on: Kidney; assay: Biodistribution in ICR mouse kidney at 5 to 10 uCi, iv after 2 hrs; type: ADME, organism-based; conditions: in vivo
[19] = tested on: Spleen; assay: Biodistribution in ICR mouse spleen at 5 to 10 uCi, iv after 1 hr; type: ADME, organism-based; conditions: in vivo
[20] = tested on: Lung; assay: Biodistribution in ICR mouse lung at 5 to 10 uCi, iv after 30 mins; type: ADME, organism-based; conditions: in vivo, 0.5 h
[21] = tested on: Lung; assay: Biodistribution in ICR mouse lung at 5 to 10 uCi, iv after 2 hrs; type: ADME, organism-based; conditions: in vivo
[22] = tested on: Brain; assay: Biodistribution in ICR mouse brain at 5 to 10 uCi, iv after 1 hr; type: ADME, organism-based; conditions: in vivo
[23] = tested on: Bone; assay: Biodistribution in ICR mouse bone at 5 to 10 uCi, iv after 2 mins; type: ADME, organism-based, Bone element; conditions: in vivo
[24] = tested on: Lung; assay: Biodistribution in ICR mouse lung at 5 to 10 uCi, iv after 2 mins; type: ADME, organism-based; conditions: in vivo
[25] = tested on: Brain; assay: Biodistribution in ICR mouse brain at 5 to 10 uCi, iv after 30 mins; type: ADME, organism-based; conditions: in vivo, 0.5 h
[26] = tested on: Bone; assay: Biodistribution in ICR mouse bone at 5 to 10 uCi, iv after 1 hr; type: ADME, organism-based, Bone element; conditions: in vivo
[27] = tested on: Muscle tissue; assay: Biodistribution in ICR mouse muscle at 5 to 10 uCi, iv after 30 mins; type: ADME, organism-based; conditions: in vivo, 0.5 h
[28] = tested on: Kidney; assay: Biodistribution in ICR mouse kidney at 5 to 10 uCi, iv after 2 mins; type: ADME, organism-based; conditions: in vivo
[29] = tested on: Zone of skin; assay: Biodistribution in ICR mouse skin at 5 to 10 uCi, iv after 2 mins; type: ADME, organism-based; conditions: in vivo
[30] = tested on: Liver; assay: Biodistribution in ICR mouse liver at 5 to 10 uCi, iv after 1 hr; type: ADME, organism-based; conditions: in vivo
[31] = tested on: Blood; assay: Biodistribution in ICR mouse blood at 5 to 10 uCi, iv after 1 hr; type: ADME, organism-based; conditions: in vivo
[32] = tested on: Bone; assay: Biodistribution in ICR mouse bone at 5 to 10 uCi, iv after 30 mins; type: ADME, organism-based, Bone element; conditions: in vivo, 0.5 h
[33] = tested on: Heart; assay: Biodistribution in ICR mouse heart at 5 to 10 uCi, iv after 30 mins; type: ADME, organism-based; conditions: in vivo, 0.5 h
[34] = tested on: Zone of skin; assay: Biodistribution in ICR mouse skin at 5 to 10 uCi, iv after 1 hr; type: ADME, organism-based; conditions: in vivo
[35] = tested on: Heart; assay: Biodistribution in ICR mouse heart at 5 to 10 uCi, iv after 1 hr; type: ADME, organism-based; conditions: in vivo
[36] = tested on: Lung; assay: Biodistribution in ICR mouse lung at 5 to 10 uCi, iv after 1 hr; type: ADME, organism-based; conditions: in vivo
[37] = tested on: Brain; assay: Biodistribution in ICR mouse brain at 5 to 10 uCi, iv after 2 mins; type: ADME, organism-based; conditions: in vivo
[38] = tested on: Liver; assay: Biodistribution in ICR mouse liver at 5 to 10 uCi, iv after 2 hrs; type: ADME, organism-based; conditions: in vivo
[39] = tested on: Bone; assay: Biodistribution in ICR mouse bone at 5 to 10 uCi, iv after 2 hrs; type: ADME, organism-based, Bone element; conditions: in vivo
[40] = tested on: Muscle tissue; assay: Biodistribution in ICR mouse muscle at 5 to 10 uCi, iv after 1 hr; type: ADME, organism-based; conditions: in vivo
[41] = tested on: Liver; assay: Biodistribution in ICR mouse liver at 5 to 10 uCi, iv after 2 mins; type: ADME, organism-based; conditions: in vivo
[42] = tested on: Blood; assay: Biodistribution in ICR mouse blood at 5 to 10 uCi, iv after 30 mins; type: ADME, organism-based; conditions: in vivo, 0.5 h

Sequence of Amyloid-beta precursor protein (P05067 whole entry): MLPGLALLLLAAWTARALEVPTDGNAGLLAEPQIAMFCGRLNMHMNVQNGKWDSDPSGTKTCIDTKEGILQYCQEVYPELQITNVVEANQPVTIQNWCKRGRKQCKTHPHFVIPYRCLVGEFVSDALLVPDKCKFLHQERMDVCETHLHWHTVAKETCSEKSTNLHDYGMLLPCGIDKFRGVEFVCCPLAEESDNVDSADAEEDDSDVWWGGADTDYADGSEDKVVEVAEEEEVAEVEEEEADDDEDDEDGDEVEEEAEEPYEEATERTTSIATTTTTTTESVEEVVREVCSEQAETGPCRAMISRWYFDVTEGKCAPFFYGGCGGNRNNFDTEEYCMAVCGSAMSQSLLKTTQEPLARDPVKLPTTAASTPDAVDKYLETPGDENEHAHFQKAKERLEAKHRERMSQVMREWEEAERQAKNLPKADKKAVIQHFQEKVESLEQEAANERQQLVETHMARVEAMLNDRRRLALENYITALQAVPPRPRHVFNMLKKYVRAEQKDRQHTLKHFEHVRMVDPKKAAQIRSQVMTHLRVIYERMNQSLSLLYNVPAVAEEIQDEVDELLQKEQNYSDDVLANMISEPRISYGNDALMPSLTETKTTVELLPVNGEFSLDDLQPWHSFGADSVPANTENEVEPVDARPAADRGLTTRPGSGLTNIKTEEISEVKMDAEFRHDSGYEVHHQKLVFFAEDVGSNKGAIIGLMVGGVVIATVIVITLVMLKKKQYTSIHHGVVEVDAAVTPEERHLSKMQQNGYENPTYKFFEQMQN

Molecule `Nc1ccc(C#Cc2ccc(OCCOCCOCCO)cc2)cc1` has a Ki [1] of 67.6 nM.
With `CNc1ccc(C#Cc2ccc(OCCOCC[18F])cc2)cc1` the Drug uptake [2] was 4.78 % ID/g, the Drug uptake [3] was 2.04 % ID/g and the Drug uptake [4] was 4.73 % ID/g. The Drug uptake [5] was 3.74 % ID/g, the Drug uptake [6] was 6.17 % ID/g and the Drug uptake [7] was 7.84 % ID/g. For the same molecule, the logD [8] was 3.48, the Drug uptake [9] was 1.26 % ID/g and the Drug uptake [10] was 2.11 % ID/g. It also gave a Drug uptake [11] of 0.82 % ID/g, a Drug uptake [12] of 18.3 % ID/g and a Drug uptake [13] of 0.79 % ID/g. The Drug uptake [14] was 3.6 % ID/g, the Drug uptake [15] was 7.89 % ID/g and the Drug uptake [16] was 2.6 % ID/g. It also gave a Drug uptake [17] of 3.3 % ID/g, a Drug uptake [18] of 5.55 % ID/g and a Drug uptake [19] of 3.78 % ID/g. The Drug uptake [20] was 4.77 % ID/g, the Drug uptake [21] was 4.67 % ID/g and the Drug uptake [22] was 0.99 % ID/g. The Drug uptake [23] was 1.54 % ID/g, the Drug uptake [24] was 6.57 % ID/g and the Drug uptake [25] was 1.03 % ID/g. The Drug uptake [26] was 1.92 % ID/g, the Drug uptake [27] was 1.26 % ID/g and the Drug uptake [28] was 5.55 % ID/g. The Drug uptake [29] was 0.94 % ID/g, the Drug uptake [30] was 15.6 % ID/g and the Drug uptake [31] was 10.3 % ID/g. For the same molecule, the Drug uptake [32] was 1.46 % ID/g, the Drug uptake [33] was 2.84 % ID/g and the Drug uptake [34] was 2.55 % ID/g. The Drug uptake [35] was 3.54 % ID/g, the Drug uptake [36] was 6.01 % ID/g and the Drug uptake [37] was 4.42 % ID/g. It also gave a Drug uptake [38] of 11.7 % ID/g, a Drug uptake [39] of 2.07 % ID/g and a Drug uptake [40] of 1.38 % ID/g. The Drug uptake [41] was 29.6 % ID/g and the Drug uptake [42] was 7.9 % ID/g.
For `CNc1ccc(C#Cc2ccc(O)cc2)cc1`, the Ki [1] was 1.5 nM.
`COc1ccc(C#Cc2ccc(O)cc2)cc1` showed a Ki [1] of 2.9 nM.
With `CN(C)c1ccc(C#Cc2ccc(OCCOCC[18F])cc2)cc1` the Drug uptake [2] was 4.75 % ID/g, the Drug uptake [3] was 1.67 % ID/g and the Drug uptake [4] was 10.5 % ID/g. The Drug uptake [5] was 5.12 % ID/g, the Drug uptake [6] was 4.79 % ID/g and the Drug uptake [7] was 5.17 % ID/g. The logD [8] was 3.12, the Drug uptake [9] was 1.03 % ID/g and the Drug uptake [10] was 2.23 % ID/g. The Drug uptake [11] was 1.34 % ID/g, the Drug uptake [12] was 11.2 % ID/g and the Drug uptake [13] was 0.91 % ID/g. The Drug uptake [14] was 2.94 % ID/g, the Drug uptake [15] was 7.33 % ID/g and the Drug uptake [16] was 2.11 % ID/g. The Drug uptake [17] was 2.31 % ID/g, the Drug uptake [18] was 4.16 % ID/g and the Drug uptake [19] was 2.38 % ID/g. The Drug uptake [20] was 4.66 % ID/g, the Drug uptake [21] was 3.38 % ID/g and the Drug uptake [22] was 2.06 % ID/g. The Drug uptake [23] was 1.78 % ID/g, the Drug uptake [24] was 11.1 % ID/g and the Drug uptake [25] was 3.69 % ID/g. The Drug uptake [26] was 1.36 % ID/g, the Drug uptake [27] was 1.38 % ID/g and the Drug uptake [28] was 12.9 % ID/g. It also gave a Drug uptake [29] of 0.85 % ID/g, a Drug uptake [30] of 9.99 % ID/g and a Drug uptake [31] of 5.68 % ID/g. For the same molecule, the Drug uptake [32] was 1.41 % ID/g, the Drug uptake [33] was 2.82 % ID/g and the Drug uptake [34] was 1.71 % ID/g. The Drug uptake [35] was 2.48 % ID/g, the Drug uptake [36] was 3.82 % ID/g and the Drug uptake [37] was 5.41 % ID/g. The Drug uptake [38] was 8.85 % ID/g, the Drug uptake [39] was 1.65 % ID/g and the Drug uptake [40] was 1.21 % ID/g. For the same molecule, the Drug uptake [41] was 19.3 % ID/g and the Drug uptake [42] was 6.13 % ID/g.
